ChEMBL document CHEMBL1201862, “PubChem BioAssay data set” (2004)
Calls of active or inactive are those of the source.

Legend:
[1] = molecular target: T1, Calpain-2 catalytic subunit (Sus scrofa, UniProt P43367); test: m-calpain protease blockers, concentration series – biochemical, fluorogenic peptide substrate, dose response (AID 1420); assay type: functional
T1 sequence (P43367 whole entry): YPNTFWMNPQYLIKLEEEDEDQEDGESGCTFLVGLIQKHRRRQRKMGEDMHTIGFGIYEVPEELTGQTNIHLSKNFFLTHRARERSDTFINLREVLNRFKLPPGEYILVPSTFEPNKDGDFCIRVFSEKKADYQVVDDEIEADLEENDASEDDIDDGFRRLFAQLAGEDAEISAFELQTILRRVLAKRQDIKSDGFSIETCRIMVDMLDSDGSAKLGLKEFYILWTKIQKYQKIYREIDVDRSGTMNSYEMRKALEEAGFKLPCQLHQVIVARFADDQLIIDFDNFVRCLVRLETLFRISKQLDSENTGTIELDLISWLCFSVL

[2] = molecular target: Small ubiquitin-related modifier 2 (Homo sapiens, UniProt P61956); test: SUMO2 binding disruption by SUMO1 hits – biochemical, FRET, human SUMO2, uHTS hits, selectivity assay for SUMO1 interaction inhibitor project, dose response (AID 624384); assay type: functional; conditions: read-out: IC50_Mean
Chain of Small ubiquitin-related modifier 2 (P61956 whole entry): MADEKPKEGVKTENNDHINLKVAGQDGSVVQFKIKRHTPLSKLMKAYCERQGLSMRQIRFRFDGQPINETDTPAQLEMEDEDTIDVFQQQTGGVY

[3] = viability loss in THP-1 monocytes – THP-1 cells, cytotoxicity control for Vif-APOBEC3G degradation inhibitor project, dose response (AID 1117359); assay type: functional; conditions: THP-1
[4] = molecular target: Voltage-gated N-type calcium channel alpha-1B subunit/Amyloid beta A4 precursor protein-binding family A member 1 (Homo sapiens, UniProt Q00975+Q02410); assay type: protein assay
Nonstructural protein 1 = Nonstructural protein 1 (Influenza A virus, UniProt Q194T2); assay type: functional, Influenza A virus (A/California/07/2009(H1N1))
Chain of Nonstructural protein 1 (Q194T2 whole entry): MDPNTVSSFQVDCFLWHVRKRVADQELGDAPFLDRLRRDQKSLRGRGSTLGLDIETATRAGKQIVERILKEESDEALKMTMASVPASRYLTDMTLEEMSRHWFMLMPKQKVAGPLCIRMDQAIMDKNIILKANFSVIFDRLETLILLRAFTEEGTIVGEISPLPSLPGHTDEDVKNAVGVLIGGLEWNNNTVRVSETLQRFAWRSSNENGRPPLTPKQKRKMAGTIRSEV

[5] = molecular target: T2, Sphingosine 1-phosphate receptor 4 (Homo sapiens, UniProt O95977); test: Fluorescence dose response cell-based high throughput screening assay for antagonists of the Sphingosine 1-Phosphate Receptor 4 (S1P4). [Related pubchem assays: 1524 (Confirmation in triplicates.), 1510 (Primary screen.)]; assay type: functional
T2 sequence (O95977 whole entry): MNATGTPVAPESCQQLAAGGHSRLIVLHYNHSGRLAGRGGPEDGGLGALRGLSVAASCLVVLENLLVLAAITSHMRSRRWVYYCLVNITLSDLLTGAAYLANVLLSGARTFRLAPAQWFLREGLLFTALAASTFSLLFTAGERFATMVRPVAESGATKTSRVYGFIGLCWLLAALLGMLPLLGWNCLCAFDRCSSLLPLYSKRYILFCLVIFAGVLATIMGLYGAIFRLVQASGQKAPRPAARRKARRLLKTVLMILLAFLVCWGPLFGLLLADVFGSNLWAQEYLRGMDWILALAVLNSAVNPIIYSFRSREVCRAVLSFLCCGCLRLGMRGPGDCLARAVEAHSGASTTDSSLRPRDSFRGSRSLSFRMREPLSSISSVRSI

[6] = molecular target: Heat shock protein HSP 90-alpha (Homo sapiens, UniProt P07900); assay type: functional, organism-based
[7] = molecular target: T3, Type-1 angiotensin II receptor (Homo sapiens, UniProt P30556); test: agonist activity at AGTR1 – cell-based, uHTS hits, selectivity assay for APJ receptor agonist project, dose response (AID 488865); assay type: functional;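 further: beta-arrestin recruitment to AT1 measured by enzyme fragment complementation luminescence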
T3 sequence (P30556 whole entry): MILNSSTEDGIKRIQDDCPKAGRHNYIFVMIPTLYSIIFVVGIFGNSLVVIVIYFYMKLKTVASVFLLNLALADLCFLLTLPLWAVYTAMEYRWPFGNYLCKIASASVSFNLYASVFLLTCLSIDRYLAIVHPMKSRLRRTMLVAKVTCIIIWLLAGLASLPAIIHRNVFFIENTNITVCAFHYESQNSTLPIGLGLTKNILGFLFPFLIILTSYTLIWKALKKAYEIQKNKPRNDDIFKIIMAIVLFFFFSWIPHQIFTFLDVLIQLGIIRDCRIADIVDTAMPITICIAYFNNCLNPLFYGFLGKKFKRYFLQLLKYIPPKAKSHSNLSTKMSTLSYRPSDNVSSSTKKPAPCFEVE

[8] = molecular target: Voltage-gated inwardly rectifying potassium channel KCNH2 (Homo sapiens, UniProt Q12809); test: concentration-dependent hERG rescue from blockers – cell-based, thallium flux, dose response (AID 2121); assay type: ADME
Chain of Voltage-gated inwardly rectifying potassium channel KCNH2 (Q12809 whole entry): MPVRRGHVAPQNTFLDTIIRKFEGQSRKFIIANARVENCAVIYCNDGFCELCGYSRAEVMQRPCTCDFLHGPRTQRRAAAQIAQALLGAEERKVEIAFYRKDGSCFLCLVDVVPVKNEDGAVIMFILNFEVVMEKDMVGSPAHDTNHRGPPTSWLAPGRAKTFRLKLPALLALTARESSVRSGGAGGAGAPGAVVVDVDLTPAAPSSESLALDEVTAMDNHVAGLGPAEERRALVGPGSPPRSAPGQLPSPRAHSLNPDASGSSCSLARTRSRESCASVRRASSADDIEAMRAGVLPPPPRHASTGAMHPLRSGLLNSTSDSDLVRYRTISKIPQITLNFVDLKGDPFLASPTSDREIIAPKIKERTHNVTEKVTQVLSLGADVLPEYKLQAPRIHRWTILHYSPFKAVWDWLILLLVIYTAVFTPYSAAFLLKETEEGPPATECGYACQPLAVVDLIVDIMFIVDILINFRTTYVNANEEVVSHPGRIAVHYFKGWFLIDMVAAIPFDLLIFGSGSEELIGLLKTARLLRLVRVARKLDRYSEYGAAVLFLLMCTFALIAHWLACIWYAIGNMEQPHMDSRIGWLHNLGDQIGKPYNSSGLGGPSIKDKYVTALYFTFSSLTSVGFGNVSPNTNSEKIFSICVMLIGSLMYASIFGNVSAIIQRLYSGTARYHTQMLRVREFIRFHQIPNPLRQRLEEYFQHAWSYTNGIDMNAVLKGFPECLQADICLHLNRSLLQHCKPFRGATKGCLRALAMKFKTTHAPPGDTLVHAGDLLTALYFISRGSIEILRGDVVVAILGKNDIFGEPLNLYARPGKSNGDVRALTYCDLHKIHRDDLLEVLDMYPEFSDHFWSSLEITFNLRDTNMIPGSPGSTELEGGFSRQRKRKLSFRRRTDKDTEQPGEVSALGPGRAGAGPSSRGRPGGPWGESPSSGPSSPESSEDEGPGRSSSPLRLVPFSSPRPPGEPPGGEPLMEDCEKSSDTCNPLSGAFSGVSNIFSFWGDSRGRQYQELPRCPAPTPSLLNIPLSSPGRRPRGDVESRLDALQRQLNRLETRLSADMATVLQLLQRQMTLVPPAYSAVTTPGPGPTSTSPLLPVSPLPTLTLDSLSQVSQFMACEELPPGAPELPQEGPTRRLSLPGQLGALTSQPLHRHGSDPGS

[9] = molecular target: T4, Mannose-6-phosphate isomerase (Homo sapiens, UniProt P34949); test: MPI enzyme activity inhibition – biochemical, fluorescence intensity, coupled assay, primary screen (AID 1209)
T4 sequence (P34949 whole entry): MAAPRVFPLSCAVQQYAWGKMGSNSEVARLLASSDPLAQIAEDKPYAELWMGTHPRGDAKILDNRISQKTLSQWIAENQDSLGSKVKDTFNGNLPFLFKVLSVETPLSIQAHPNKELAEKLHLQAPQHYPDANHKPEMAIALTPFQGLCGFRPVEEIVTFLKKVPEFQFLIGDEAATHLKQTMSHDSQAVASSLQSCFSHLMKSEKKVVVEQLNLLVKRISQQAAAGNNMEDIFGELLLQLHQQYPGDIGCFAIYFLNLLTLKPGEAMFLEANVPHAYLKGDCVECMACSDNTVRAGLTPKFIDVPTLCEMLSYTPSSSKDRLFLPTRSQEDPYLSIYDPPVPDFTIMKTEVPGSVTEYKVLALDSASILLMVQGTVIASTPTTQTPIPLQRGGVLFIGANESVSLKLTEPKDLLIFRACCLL

[10] = molecular target: Peroxisome proliferator-activated receptor gamma/Nuclear receptor coactivator 3 (Homo sapiens, UniProt P37231); test: TR-FRET dose response biochemical High Throughput Screening assay for agonists of the steroid receptor coactivator 3 (SRC-3) recruitment by the peroxisome proliferator-activated receptor gamma (PPAR gamma): non-selective agonists. [Related pubchem assays: 1301 (Confirmation screen.), 1048 (Primary screen.)]; assay type: functional
[11] = molecular target: Peroxisome proliferator-activated receptor gamma/Nuclear receptor coactivator 2 (Homo sapiens, UniProt P37231); test: TR-FRET dose response biochemical High Throughput Screening assay for agonists of the steroid receptor coactivator 2 (SRC-2) recruitment by the peroxisome proliferator-activated receptor gamma (PPAR gamma): non-selective agonists. [Related pubchem assays: 1297, 1032 ]; assay type: functional
Chain of Peroxisome proliferator-activated receptor gamma/Nuclear receptor coactivator 2 (P37231 whole entry): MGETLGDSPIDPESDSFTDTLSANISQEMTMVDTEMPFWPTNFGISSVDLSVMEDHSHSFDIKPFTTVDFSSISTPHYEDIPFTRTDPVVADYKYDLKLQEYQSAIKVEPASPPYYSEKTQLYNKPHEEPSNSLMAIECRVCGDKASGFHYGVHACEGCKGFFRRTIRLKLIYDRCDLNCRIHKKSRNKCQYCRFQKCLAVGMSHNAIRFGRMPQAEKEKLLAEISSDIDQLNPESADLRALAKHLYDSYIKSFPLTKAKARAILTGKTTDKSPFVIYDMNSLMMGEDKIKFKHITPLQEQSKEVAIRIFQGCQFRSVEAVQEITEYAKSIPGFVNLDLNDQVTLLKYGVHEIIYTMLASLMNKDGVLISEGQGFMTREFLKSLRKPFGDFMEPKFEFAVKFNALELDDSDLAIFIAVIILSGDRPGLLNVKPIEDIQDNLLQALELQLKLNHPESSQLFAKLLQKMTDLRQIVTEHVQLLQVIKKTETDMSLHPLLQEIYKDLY
Chain of Peroxisome proliferator-activated receptor gamma/Nuclear receptor coactivator 2 (Q15596 whole entry, further chain): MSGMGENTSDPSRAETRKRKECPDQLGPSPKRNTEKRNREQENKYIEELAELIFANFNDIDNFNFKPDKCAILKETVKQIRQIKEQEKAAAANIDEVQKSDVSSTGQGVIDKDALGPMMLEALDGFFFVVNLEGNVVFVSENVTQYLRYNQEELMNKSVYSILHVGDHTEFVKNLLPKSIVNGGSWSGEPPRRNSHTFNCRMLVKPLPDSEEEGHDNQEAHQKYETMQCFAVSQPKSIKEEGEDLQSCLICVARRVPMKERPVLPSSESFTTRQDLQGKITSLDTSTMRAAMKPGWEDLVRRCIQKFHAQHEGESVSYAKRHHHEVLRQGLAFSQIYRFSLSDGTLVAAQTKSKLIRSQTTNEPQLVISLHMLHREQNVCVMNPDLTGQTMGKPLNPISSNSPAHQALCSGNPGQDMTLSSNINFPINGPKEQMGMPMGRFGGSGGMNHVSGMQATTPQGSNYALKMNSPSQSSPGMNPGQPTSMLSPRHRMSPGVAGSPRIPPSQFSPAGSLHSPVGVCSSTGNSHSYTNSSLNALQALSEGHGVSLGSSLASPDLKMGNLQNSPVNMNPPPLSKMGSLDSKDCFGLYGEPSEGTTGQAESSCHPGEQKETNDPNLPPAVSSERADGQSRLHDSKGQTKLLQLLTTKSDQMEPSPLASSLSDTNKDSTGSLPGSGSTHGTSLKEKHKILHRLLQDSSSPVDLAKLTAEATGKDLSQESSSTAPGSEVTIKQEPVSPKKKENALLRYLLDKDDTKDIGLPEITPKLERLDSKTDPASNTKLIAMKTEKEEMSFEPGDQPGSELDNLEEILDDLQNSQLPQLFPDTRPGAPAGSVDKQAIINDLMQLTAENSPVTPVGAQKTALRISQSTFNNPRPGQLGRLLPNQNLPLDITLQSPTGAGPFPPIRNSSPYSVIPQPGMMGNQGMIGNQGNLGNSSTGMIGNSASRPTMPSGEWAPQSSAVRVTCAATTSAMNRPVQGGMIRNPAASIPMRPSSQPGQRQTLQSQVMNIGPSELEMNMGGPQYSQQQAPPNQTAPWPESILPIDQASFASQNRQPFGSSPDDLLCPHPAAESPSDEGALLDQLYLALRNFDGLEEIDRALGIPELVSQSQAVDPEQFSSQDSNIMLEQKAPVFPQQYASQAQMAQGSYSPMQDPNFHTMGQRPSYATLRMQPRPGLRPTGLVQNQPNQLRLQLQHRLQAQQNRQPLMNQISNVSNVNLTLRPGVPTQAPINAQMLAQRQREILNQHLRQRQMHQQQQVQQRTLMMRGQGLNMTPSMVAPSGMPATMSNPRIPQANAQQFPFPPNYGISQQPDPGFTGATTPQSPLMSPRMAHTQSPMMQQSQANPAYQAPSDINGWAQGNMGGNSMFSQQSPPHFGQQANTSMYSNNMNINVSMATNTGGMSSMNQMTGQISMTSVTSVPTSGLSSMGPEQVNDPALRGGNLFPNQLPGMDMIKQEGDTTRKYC

[12] = system: Streptococcus sp. 'group A'; test: Streptococcus pyogenes SK(-)GAS viability under kanamycin – luminescence, BacTiterGlo, confirmation, counter-screen for streptokinase expression inhibitor project, dose response (AID 1900); assay type: functional, organism-based
[13] = DRD fibroblast viability loss – cell-based, non-viral oncogenic, luminescence, dose response (AID 1934); assay type: functional; conditions: Homo sapiens
[14] = Vero E6 cell cytotoxicity, dose response, cytotoxicity control for non-replicating M. tuberculosis project, secondary assay (AID 492998); assay type: functional, VeroE6; conditions: Vero C1008
BJ = test: cells; assay type: functional, cell-based; conditions: Homo sapiens
[15] = decrease of insulin promoter-GFP reporter – imaging, high-content screening, mouse beta cells (AID 1628); assay type: functional; conditions: MIN6
Jurkat = test: SAR Analysis of small molecule inhibitors of T-cell specific antigen receptor-induced NF-kB activation in a Jurkat cell line using a luminescence assay. [Related pubchem assays (depositor defined):AID435003, AID435012, AID465]; assay type: functional, cell-based; conditions: Homo sapiens

COc1cc(-c2ccc(Nc3ccccc3C(=O)O)c(OC)c2)ccc1Nc1ccccc1C(=O)O
IC50 [1]: 2.87 µM (not active) | IC50 [2]: 3.91 µM (active) | CC50 [3]: > 40 µM (active) | IC50 [4]: 30 µM (active)

COC(CNC(=O)c1ccc2c3c(onc13)-c1ccccc1C2=O)OC
IC50 (Nonstructural protein 1): 82.4 µM (active) | IC50 [5]: 1.63 µM (active)

Cc1ccc2nc(/C(C#N)=C\c3ccc([N+](=O)[O-])o3)[nH]c2c1
AC50 [6]: < 0.195 µM (active) | EC50 [7]: > 100 µM (inactive)

Nc1ccc2c(c1)C(=O)C(=O)c1ccccc1-2
EC50 [8]: 1.38 µM (active) | IC50 [9]: > 50 µM (not active) | EC50 [10]: > 79.4 µM (not active) | EC50 [11]: 12.1 µM (not active) | EC50 [12]: 0.46 µM (active) | EC50 [13]: 4.42 µM (active) | CC50 [14]: 1.81 µM (active) | EC50 (BJ): 4.11 µM (active)

CCCC(=O)NC(c1ccccc1OC)c1ccc2cccnc2c1O (stereo not drawn)
IC50 [15]: 1.71 µM (active) | IC50 (Jurkat): 3.82 µM (active)
